Reference: ChEMBL document CHEMBL5046276 (J Med Chem, 2022)
Activity calls are given as the source filed them. The calls are words filed in the database; no cut-off is given here.

Columns and labels:
Plasmodium berghei = test: Antimalarial activity against liver stage transgenic Plasmodium berghei ANKA sporozoites transfected with GFP-Luc infected in BALB/c mouse assessed as reduction in liver stage parasite infection at 30 mg/kg, iv measured for 1 to 4 days post-administration by IVIS spectrum in vivo imaging analysis; format: functional, organism-based; conditions: time 1-4 day
Plasmodium falciparum [1] = test: Antimalarial activity against asexual blood stage quinine-resistant Plasmodium falcipuram C2A assessed as parasite growth inhibition incubated for 72 hrs by SYBR Green I staining based fluorescence analysis; format: functional, organism-based
Plasmodium falciparum [2] = test: Antimalarial activity against asexual blood stage wild-type Plasmodium falciparum 3D7 assessed as parasite growth inhibition incubated for 72 hrs by SYBR Green I staining based fluorescence analysis; format: functional, organism-based; conditions: 3D7, 72 h
Plasmodium falciparum [3] = test: Antimalarial activity against asexual blood stage chloroquine-resistant Plasmodium falciparum Dd2 assessed as parasite growth inhibition incubated for 72 hrs by SYBR Green I staining based fluorescence analysis; format: functional, organism-based; conditions: Dd2, 72 h
[4] = Cytotoxicity against human HepG2 cells incubated for 72 hrs by CCK-8 assay
[5] = Cytotoxicity against HEK293T cells incubated for 72 hrs by CCK-8 assay; conditions: human
[6] = Metabolic stability in mouse liver microsomes assessed as half life at […] incubated for 45 mins in presence of NADPH by LC/MS analysis; format: ADME, Microsome; conditions: for t1/2: microsomes, 0.75 h, 10000 µM
Plasmodium falciparum [7] = test: Antimalarial activity against asexual blood stage chloroquine-resistant Plasmodium falcipuram GB4 assessed as parasite growth inhibition incubated for 72 hrs by SYBR Green I staining based fluorescence analysis; format: functional, organism-based; conditions: GB4, 72 h
[8] = Toxicity in BALB/c mouse infected with blood stage Plasmodium yoelii assessed as animal death at 60 mg/kg, ip qd for 5 days measured from day 2 post compound treatment; format: organism-based; conditions: in vivo, 120 h, time 5 day
[9] = Toxicity in BALB/c mouse infected with blood stage Plasmodium yoelii assessed as animal death at 60 mg/kg, ip qd for 5 days and measured on day 28; format: organism-based; conditions: in vivo, 672 h, time 28 day
[10] = Toxicity in BALB/c mouse infected with blood stage Plasmodium yoelii assessed as animal death at 30 mg/kg, ip qd for 5 days and measured upto 60 days; format: organism-based; conditions: in vivo, 1440 h, time 60 day
Plasmodium yoelii [11] = test: Antimalarial activity against blood stage Plasmodium yoelii infected in BALB/c mouse assessed as parasite recrudescence by measuring parasitemia at 60 mg/kg, ip qd for 5 days and measured on 11 to 26 days; format: functional; conditions: time 11-26 day
Plasmodium falciparum [12] = test: Antimalarial activity against blood stage asynchronous Plasmodium falcipuram 3D7 assessed as parasite growth inhibition by measuring parasitemia at 10 to 100 nM incubated for 12 to 24 hrs by flow cytometry; format: functional, organism-based; conditions: dose 10-100 nM, time 12-24 hrs
Plasmodium falciparum [13] = test: Antimalarial activity against blood stage asynchronous Plasmodium falcipuram 3D7 assessed as parasite growth inhibition by measuring parasitemia incubated for 6 to 12 hrs followed by compound washout and replacement with fresh medium without compounds and measured after 4 days by flow cytometry; format: functional, organism-based; conditions: dose 10-100 nM, time 6-12 hrs
Plasmodium falciparum [14] = test: Antimalarial activity against blood stage asynchronous Plasmodium falcipuram 3D7 assessed as suppression of parasite reproduction by measuring parasitemia at 10 nM incubated for 24 hrs followed by compound washout and replacement with fresh medium without compounds and measured after 4 days by flow cytometry; format: functional
Plasmodium falciparum [15] = test: Antimalarial activity against synchronized Plasmodium falcipuram 3D7 infected in human RBC assessed as ring stage parasite killing at 40 nM treated […] and incubated for 12 hrs followed by compound washout and replacement with fresh medium without compounds and measured at 50 hrs post infection by Geimsa staining based microscopy; format: functional, organism-based
Plasmodium falciparum [16] = test: (§1) Antimalarial activity against synchronized Plasmodium falcipuram 3D7 infected in human RBC assessed as irreversible inhibition of parasite growth at ring stage at 40 nM treated at 5 to 17 hpi incubated for 12 hrs followed by compound washout and replacement with fresh medium without compounds and measured after 4 days by flow cytometry; format: functional, organism-based
Plasmodium falciparum [17] = test: as §1, with “schizont” for “ring”, “29” for “at 5”, “41” for “17”; format: functional, organism-based
Plasmodium falciparum [18] = test: Inhibition of Plasmodium falcipuram HDAC assessed as effect on parasite histone deacetylation level at 5 to 20 nM incubated for 4 hrs by Western blot analysis; conditions: dose 5-20 nM
[19] = In vivo inhibition of C-terminal glmS fused HDAC1 in Plasmodium falcipuram 3D7 assessed as inhibition of parasite growth incubated for 4 hrs followed by compound washout and replacement with fresh medium with compounds measured after 68 hrs by SYBR Green I staining based fluorescence analysis; format: functional, organism-based, Plasmodium falciparum
[20] = In vivo inhibition of C-terminal TY1 fused HDAC1 in Plasmodium falcipuram 3D7 assessed as inhibition of parasite growth incubated for 4 hrs followed by compound washout and replacement with fresh medium with compounds measured after 68 hrs by SYBR Green I staining based fluorescence analysis; format: functional, organism-based, Plasmodium falciparum
Plasmodium falciparum [21] = test: In vivo inhibition of C-terminal glmS fused HDAC2 in Plasmodium falcipuram 3D7 assessed as inhibition of parasite growth incubated for 4 hrs followed by compound washout and replacement with fresh medium with compounds measured after 68 hrs by SYBR Green I staining based fluorescence analysis; format: functional, organism-based
Plasmodium falciparum [22] = test: In vivo inhibition of C-terminal TY1 fused HDAC2 in Plasmodium falcipuram 3D7 assessed as inhibition of parasite growth incubated for 4 hrs followed by compound washout and replacement with fresh medium with compounds measured after 68 hrs by SYBR Green I staining based fluorescence analysis; format: functional, organism-based
Plasmodium falciparum [23] = test: Inhibition of Plasmodium falcipuram recombinant HDAC1 using HDAC-Glo I/II as substrate at 50 to 800 nM preincubated for 90 mins by luminescence based microplate reader analysis; conditions: dose 50-800 nM
Plasmodium falciparum [24] = test: In vivo inhibition of C-terminal glmS fused HDAC1 in Plasmodium falcipuram 3D7 assessed as inhibition of parasite growth by measuring downregulation of RBC invasion-related genes expression level by RNA-seq analysis; format: functional, organism-based
Plasmodium falciparum [25] = test: In vivo inhibition of C-terminal TY1 fused HDAC1 in Plasmodium falcipuram 3D7 assessed as inhibition of parasite growth by measuring downregulation of RBC invasion-related genes expression level by RNA-seq analysis; format: functional, organism-based
[26] = Cmax in BALB/c mouse at 5 mg/kg, ip measured upto 24 hrs by LC-MS/MS analysis; format: ADME, organism-based; set-up: route intraperitoneal, dose 5 mg/kg, time <=24; conditions: in vivo
[27] = Tmax in BALB/c mouse at 5 mg/kg, ip measured after upto 24 hrs by LC-MS/MS analysis; format: ADME, organism-based; conditions: in vivo
[28] = Apparent clearance in BALB/c mouse at 5 mg/kg, ip measured after upto 24 hrs by LC-MS/MS analysis; format: ADME, organism-based; conditions: in vivo, read-out: CLz/F (converted)
[29] = Apparent volume of distribution in BALB/c mouse at 5 mg/kg, ip measured after upto 24 hrs by LC-MS/MS analysis; format: ADME, organism-based; conditions: in vivo, read-out: Vz/F
[30] = target: T1, NAD-dependent protein deacetylase sirtuin-2 (Homo sapiens, UniProt Q8IXJ6); test: Inhibition of human C-terminal His-tagged SIRT2 (50 to 356 residues) expressed in Escherichia coli using Ac-peptide as substrate incubated for 4 hrs followed by trypsin addition and further incubated for 2 hrs
T1 sequence (Q8IXJ6 whole entry): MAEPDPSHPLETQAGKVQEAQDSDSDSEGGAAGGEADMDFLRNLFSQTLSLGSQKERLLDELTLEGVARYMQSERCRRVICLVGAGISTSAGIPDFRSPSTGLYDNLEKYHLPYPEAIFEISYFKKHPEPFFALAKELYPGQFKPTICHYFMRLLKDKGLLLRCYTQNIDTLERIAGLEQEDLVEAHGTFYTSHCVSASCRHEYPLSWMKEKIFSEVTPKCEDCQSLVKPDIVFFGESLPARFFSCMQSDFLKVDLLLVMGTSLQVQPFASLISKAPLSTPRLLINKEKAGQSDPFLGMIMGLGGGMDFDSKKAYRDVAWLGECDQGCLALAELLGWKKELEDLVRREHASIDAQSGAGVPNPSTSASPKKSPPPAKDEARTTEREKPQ

[31] = Selectivity index, ratio of IC50 for cytotoxicity against human HepG2 cells to IC50 for antimalarial activity against asexual blood stage wild-type Plasmodium falciparum 3D7; format: toxicity, cell-based; conditions: read-out: Ratio IC50
Plasmodium falciparum [32] = test: Antimalarial activity against asexual blood stage sulfadoxine-pyrimethamine/mefloquine-resistant Plasmodium falcipuram CP286 assessed as parasite growth inhibition incubated for 72 hrs by SYBR Green I staining based fluorescence analysis; format: functional, organism-based; conditions: CP286, 72 h
Plasmodium yoelii [33] = test: Antimalarial activity against blood stage Plasmodium yoelii infected in BALB/c mouse assessed as parasite killing by measuring RBC cells in blood smear at 60 mg/kg, ip qd for 5 days by microscopic analysis; format: functional, organism-based; conditions: Erythrocyte, time 5.0 day
Plasmodium yoelii [34] = test: Antimalarial activity against blood stage Plasmodium yoelii infected in BALB/c mouse assessed as parasitemia at 60 mg/kg, ip qd for 5 days and measured after 14 days; format: functional; conditions: time 14 day
[35] = Selectivity index, ratio of IC50 for cytotoxicity against HEK293T cells to IC50 for antimalarial activity against asexual blood stage wild-type Plasmodium falciparum 3D7; format: toxicity, cell-based; conditions: human, read-out: Ratio IC50
[36] = Metabolic stability in mouse liver microsomes assessed as intrinsic clearance at […] incubated for 45 mins in presence of NADPH by LC/MS analysis; format: ADME, Microsome; conditions: read-out: CLH
Plasmodium yoelii [37] = test: Antimalarial activity against blood stage Plasmodium yoelii infected in BALB/c mouse assessed as parasitemia at 60 mg/kg, ip qd for 5 days and measured after 16 days; format: functional; conditions: time 16 day

Cn1cc(CNCC2CCN(c3ncc(C(=O)NO)cn3)CC2)c2ccccc21 [QUISINOSTAT]
Activity (Plasmodium berghei): inactive | IC50 (Plasmodium falciparum [1]): 2.52 nM | IC50 (Plasmodium falciparum [2]): 4.01 nM | IC50 (Plasmodium falciparum [3]): 7.09 nM | IC50 at 72 h [4]: 30 nM | IC50 at 72 h [5]: 60 nM | t1/2 [6]: 10.5 h | IC50 (Plasmodium falciparum [7]): 1.75 nM | Activity [8]: Toxic | Activity [9]: Toxic | Activity [10]: Toxic | Activity (Plasmodium yoelii [11]): 0.05% | Activity (Plasmodium falciparum [12]): Active | Activity (Plasmodium falciparum [13]): Dose dependent effect | Activity (Plasmodium falciparum [14]): 100% | Activity (Plasmodium falciparum [15]): Active | Activity (Plasmodium falciparum [16]): Active | Activity (Plasmodium falciparum [17]): Active | Activity (Plasmodium falciparum [18]): Active | IC50 [19]: 5.59 nM | IC50 [20]: 19.1 nM | inhibition (Plasmodium falciparum [21]): Active | inhibition (Plasmodium falciparum [22]): Active | inhibition (Plasmodium falciparum [23]): Active | inhibition (Plasmodium falciparum [24]): Active | inhibition (Plasmodium falciparum [25]): Active | Cmax [26]: 89 ng/mL | Tmax [27]: 4.8 min | CL/F [28]: 462 mL/min/kg | Vd/F [29]: 245 L/kg

Cc1ccc(C(=O)Nc2ccc(S(=O)(=O)O)c3cc(S(=O)(=O)O)cc(S(=O)(=O)O)c23)cc1NC(=O)c1cccc(NC(=O)Nc2cccc(C(=O)Nc3cc(C(=O)Nc4ccc(S(=O)(=O)O)c5cc(S(=O)(=O)O)cc(S(=O)(=O)O)c45)ccc3C)c2)c1 [SURAMIN]
IC50 [30]: 5440 nM

Cl.Cn1cc(CN2CC3(CCN(c4ncc(C(=O)NO)cn4)C3)C2)c2ncccc21
IC50 (Plasmodium falciparum [1]): 3.76 nM | IC50 (Plasmodium falciparum [2]): 2.67 nM | IC50 (Plasmodium falciparum [3]): 3.08 nM | IC50 at 72 h [4]: 20000 nM | IC50 at 72 h [5]: > 20000 nM | selectivity ratio [31]: > 7490 | t1/2 [6]: 2.9965 h | IC50 (Plasmodium falciparum [7]): 4.47 nM | IC50 (Plasmodium falciparum [32]): 13.1 nM | Activity (Plasmodium yoelii [33]): inactive | Activity (Plasmodium yoelii [34]): 46.37% | selectivity ratio [35]: > 7490

Cl.Cn1c(CN2CC3(CCN(c4ncc(C(=O)NO)cn4)C3)C2)nc2ccccc21
IC50 (Plasmodium falciparum [1]): 3.8 nM | IC50 (Plasmodium falciparum [2]): 1.84 nM | IC50 (Plasmodium falciparum [3]): 3.99 nM | IC50 at 72 h [4]: > 9450 nM | IC50 at 72 h [5]: 9330 nM | selectivity ratio [31]: > 5140 | half-life ([6]; liver microsomes): 2.23 h | CLint scaled [36]: 40.7 mL/min/kg | IC50 (Plasmodium falciparum [7]): 4.64 nM | IC50 (Plasmodium falciparum [32]): 9.87 nM | Activity (Plasmodium yoelii [33]): inactive | Activity (Plasmodium yoelii [37]): 16.57% | selectivity ratio [35]: 5070
